Values joined by “and” are separate entries in the source; they are usually repeats but may differ in a detail not shown here. Equal values may be shown once.

Here are results for 27 compounds from the Kinase Knowledgebase extract (Sharma et al. 2016).

The assay deals with MAPK14 (UniProt Q16539). Description: Inhibition of MAPK14 Kinase Activity.
Sequence of MAPK14 (Q16539 whole entry, looked up): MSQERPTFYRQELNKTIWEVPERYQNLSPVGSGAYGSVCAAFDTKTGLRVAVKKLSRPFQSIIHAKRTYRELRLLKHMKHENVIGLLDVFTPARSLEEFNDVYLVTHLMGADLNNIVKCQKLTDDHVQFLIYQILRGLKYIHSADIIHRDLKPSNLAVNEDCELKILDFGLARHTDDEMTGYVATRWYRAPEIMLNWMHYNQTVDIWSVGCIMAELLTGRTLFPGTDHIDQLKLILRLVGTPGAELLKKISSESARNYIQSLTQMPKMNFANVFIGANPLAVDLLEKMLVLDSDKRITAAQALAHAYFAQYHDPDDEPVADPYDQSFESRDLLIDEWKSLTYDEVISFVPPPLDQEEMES
A word on the IC50: it is the concentration that inhibits the measured activity by half. Compound `Fc1ccc(-c2nc(C3CCNCC3)[nH]c2-c2ccncc2)cc1` yielded a 50% inhibitory concentration (IC50) of 8 nM.

With `CC(C)c1nc(-c2ccccc2)[nH]c1-c1ccncc1`, the IC50 was determined as 2090 nM. This IC50 lies about 260-fold higher than the previous one.

Consider `Clc1ccccc1-c1nc(-c2ccccc2)[nH]c1-c1ccncc1`, for which the half-inhibitory concentration (IC50) was 151 nM. This IC50 lies about 14-fold lower than the previous one.

The compound `c1ccc(-c2ccc(-c3nc(-c4ccccc4)[nH]c3-c3ccncc3)cc2)cc1` showed a concentration for half-maximal inhibition (IC50) of 1000 nM.

Compound `Oc1ccc(-c2nc(-c3ccccc3)[nH]c2-c2ccncc2)cc1` came in with an IC50 of 1410 nM.

On to `Nc1nccc(-c2[nH]c(C3CCNCC3)nc2-c2cccc(C(F)(F)F)c2)n1`, for which the IC50 came out at 7 nM.

Compound `Oc1cccc(-c2nc(-c3ccccc3)[nH]c2-c2ccncc2)c1` came in with an IC50 of 141 nM. Against the preceding compound, the IC50 is about 20-fold higher.

Take `Clc1ccc(-c2nc(-c3ccccc3)[nH]c2-c2ccncc2)cc1Cl`: the IC50 came out at 28 nM.

`Clc1cccc(-c2nc(-c3ccccc3)[nH]c2-c2ccncc2)c1` displayed a 50% inhibitory concentration (IC50) of 128 nM.

In turn, `Nc1nccc(-c2[nH]c(-c3ccccc3)nc2-c2ccccc2)n1` gave an IC50 of 38 nM. Against the preceding compound, the IC50 is about 3.4-fold lower.

Consider `FC(F)(F)c1ccc(-c2nc(-c3ccccc3)[nH]c2-c2ccncc2)cc1`, for which the IC50 came out at 199 nM.

In turn, `Clc1ccc(-c2nc(-c3ccccc3)[nH]c2-c2ccncc2)cc1` showed an IC50 of 47 nM.

In the case of `C[C@H](Nc1nccc(-c2[nH]c(C3CCNCC3)nc2-c2cccc(C(F)(F)F)c2)n1)c1ccccc1`, the IC50 is 0.7 nM and 0.1 nM.

For `Fc1cccc(-c2nc(-c3ccccc3)[nH]c2-c2ccncc2)c1`, the IC50 was found to be 489 nM.

Compound `COc1cccc(-c2nc(-c3ccccc3)[nH]c2-c2ccncc2)c1` gave a half-inhibitory concentration (IC50) of 549 nM.

As for `COc1ccc(-c2nc(-c3ccccc3)[nH]c2-c2ccncc2)cc1`, the 50% inhibitory concentration (IC50) worked out at 301 nM.

For `COc1ccc(CNc2nccc(-c3[nH]c(C4CCNCC4)nc3-c3cccc(C(F)(F)F)c3)n2)cc1`, the half-maximal inhibitory concentration (IC50) was 7 nM.

With `COc1ccc(CNc2nccc(-c3[nH]c(-c4ccccc4)nc3-c3ccccc3)n2)cc1`, the 50% inhibitory concentration (IC50) was 38 nM.

The compound `Clc1cc(Cl)cc(-c2nc(-c3ccccc3)[nH]c2-c2ccncc2)c1` showed a concentration for half-maximal inhibition (IC50) of 138 nM.

Take `Fc1ccc(-c2nc[nH]c2-c2ccncc2)cc1`: the 50% inhibitory concentration (IC50) was determined as 169 nM. The IC50 values of the last two compounds are within 1.5-fold of each other.

`c1ccc(-c2nc(-c3ccccc3)c(-c3ccncn3)[nH]2)cc1` registered a half-inhibitory concentration (IC50) of 707 nM.

Compound `c1ccc(-c2nc(-c3ccccc3)c(-c3ccncc3)[nH]2)cc1` gave a half-inhibitory concentration (IC50) of 181 nM. This IC50 lies about 3.9-fold lower than the previous one.

In the case of `FC(F)(F)c1cccc(-c2nc(-c3ccccc3)[nH]c2-c2ccncc2)c1`, the IC50 was found to be 85 nM.

On to `C[C@@H](Nc1nccc(-c2[nH]c(C3CCNCC3)nc2-c2cccc(C(F)(F)F)c2)n1)c1ccccc1`, for which the 50% inhibitory concentration (IC50) came to 0.9 nM. This IC50 is about 94-fold lower than that of the compound before.

The compound `Fc1ccc(-c2nc(C3CCCCC3)[nH]c2-c2ccncc2)cc1` displayed an IC50 of 70 nM.

In turn, `N#Cc1ccc(-c2nc(-c3ccccc3)[nH]c2-c2ccncc2)cc1` returned a half-maximal inhibitory concentration (IC50) of 977 nM.

As to `CNc1nccc(-c2[nH]c(-c3ccccc3)nc2-c2ccccc2)n1`, the concentration for half-maximal inhibition (IC50) was determined as 120 nM.
